# In paper PMC10298982, “Stability Characterization of the Novel Anti-Cancer HM-10/10 HDL-Mimetic Peptide” (International Journal of Molecular Sciences, 2023):
# Ends that are not written are not given here.
# What was measured:
# [1] = molecular target: CYP3A4 (Homo sapiens, UniProt P08684); experiment: CYP450 time-dependent inhibition, CYP3A4 (midazolam and testosterone substrates), pooled human liver microsomes; format: in vitro ADME
# [2] = Metabolic stability in CD-1 mouse liver microsomes; format: in vitro ADME
# [3] = Metabolic stability in cryopreserved cynomolgus monkey hepatocytes; format: in vitro ADME; details: Cynomolgus monkey hepatocytes 0.5 million cells/mL
# [4] = molecular target: CYP2C9 (Homo sapiens, UniProt P11712); details: microsomes
# [5] = tested on: CYP3A4; experiment: CYP3A4 induction (enzyme activity) in single-donor human hepatocytes; format: in vitro ADME; details: for Fold Increase (Enzyme Activity) Mean: mean of three lots
# [6] = tested on: CYP2B6; experiment: CYP2B6 induction (enzyme activity) in single-donor human hepatocytes; details: for Fold Increase (Enzyme Activity) Mean: mean of three lots
# Protocol: (§1) The transport medium was replaced with 200 μL of warm (37 °C) incubation medium (InVitroGRO HI, BioIVT Catalog No. Z99009) and the plate was placed in a humidified 5% carbon dioxide incubator at 37 °C for 24 h.
# (§2) In addition, test article vehicle (PBS) was added to warm (37°C) InVitroGRO HI Medium in a 5:95 (v:v) ratio. […] The plates were removed from the incubator and the hepatocytes were prepared for the induction assay by replacing the cell culture medium with medium containing either the test article, a control inducer, or vehicle control (200 µL per well). The hepatocyte plates were returned to the cell culture incubator and incubated for 24 h.
# (§3) On Day 3, induction was repeated following the same steps as described above for the previous day, and plates were returned to the cell culture incubator for an additional 24 h.
# (§4) After aliquots were taken to measure test article stability, all the remaining medium from each well in the hepatocyte plate was removed, all wells were washed once using 200 μL of blank assay buffer, and then 100 μL of the 1000-fold diluted substrate solutions were added to the appropriate wells. The assay plate was returned to the humidified 5% carbon dioxide incubator at 37 °C for 1 h incubation.
# (§5) At the end of the incubation time, 100 μL of mRNA lysis buffer was added to each well to stop the reaction. Fifty microliters of this reaction mixture were transferred into a new plate and quenched with 200 μL of ice-cold acetonitrile containing a CYP-specific stable labeled internal standard (250 ng/mL acetaminophen-d4, 250 ng/mL hydroxybupropion-d6, or 250 ng/mL hydroxytestosterone-d3). After removal of the aliquots from the plate for enzyme activity determination, the assay plates were sealed and stored in a −70 °C freezer until use for RT-PCR, mRNA analysis.
# (§6) For the induction assay samples, an aliquot (50 µL) of the supernatant was transferred to a new plate and diluted with 100 µL Milli-Q water. For the test article stability samples, an aliquot (50 µL) of the supernatant was transferred to a new plate and diluted with 60 µL 0.1% formic acid in Milli-Q water. These samples for the enzyme activity assay and article stability test were refrigerated for storage until analysis. […]
# (§7) HM1010: Induction Potential of Cytochrome P450 Enzymes
# (§8) (CYP1A2, CYP2B6 and CYP3A4) Using Human Cryopreserved Hepatocytes
# (§9) Testing Facility Study No.
# (§10) The purpose of this in-vitro study was to determine the induction potential of HM1010 on human
# (§11) cytochrome P450 (CYP) isoenzyme (1A2, 2B6 and 3A4) activity. The study design is
# (§12) Matrix: Inducible cryopreserved human hepatocytes three single-donor lots
# (§13) Assay Buffer: InVitroGRO KHB
# (§14) Substrates: Phenacetin (1A2), Bu propion (2B6), and Testosterone (3A4)
# (§15) Assay conditions: 48 hours at 37°C in humidified 5% carbon dioxide incubator
# (§16) Analysis: LC-MS/MS (enzyme activity) and mRNA analysis
# [7] = Metabolic stability in human liver microsomes; format: in vitro ADME
# [8] = Test article stability over 24 h incubation with hepatocytes in the induction assay; format: in vitro ADME, human; details: average of three lots, both days
# Protocol: For each 24 h incubation, 50 µL of each medium containing the test article (HM-10/10) were collected at the start (T0) and end of 24 h incubation (T24) and quenched with 300 µL of 1% perchloric acid in methanol and 50 µL of internal standard cocktail (carbutamide, chrysin, and glyburide each at 1.71 µg/mL water). These samples were analyzed to test the stability of HM-10/10 after 24 h incubation with the hepatocytes. The quenched sample plates were stored covered in a −20 °C freezer.
# [9] = Metabolic stability in cryopreserved Sprague-Dawley rat hepatocytes; format: in vitro ADME; details: Sprague-Dawley rat hepatocytes 0.5 million cells/mL; for CLint scaled: rat, hepatocytes, 2 μM
# [10] = in vitro; details: CD-1, mouse, plasma, pH 7.4
# Protocol: Samples were tested at 2 μM.
# The supernatant was removed and incubated at 37 °C for at least 10 min before use. The pH of each matrix was checked and adjusted to pH 7.4 using 10% phosphoric acid or 1 N sodium hydroxide as necessary.
# Test and control article stock solutions were spiked (1.5 µL) into matrix (0.749 mL) to a final assay concentration of 2 µM and mixed. […] These tubes were sealed and incubated at 37 °C with shaking.
# The quenched samples were mixed briefly by vortexing and stored in a −20 °C freezer.
# Sample plates were stored refrigerated until analysis.
# The column was set to a temperature of 55 °C. […] The instrument was equipped with an electrospray ionization source (500 °C) operated in positive-ion mode.
# Peak area ratios for IS-normalized test article and control article counts were used to calculate the percent remaining relative to the time zero (T0) value. As appropriate, results were plotted and further analyzed to calculate half-life (T1/2) values.
# Mean peak ratios were used to calculate the percent remaining relative to the T0 value: % Remaining at Timex = (mean peak area ratio Tx/mean peak ratio T0) × 100.
# [11] = molecular target: CYP2D6 (Homo sapiens, UniProt P10635); details: microsomes
# [12] = tested on: CYP1A2; experiment: CYP1A2 induction (enzyme activity) in single-donor human hepatocytes; format: in vitro ADME; details: for Fold Increase (Enzyme Activity) Mean: mean of three lots
# Protocol: as §1, §2, §3, §4, §5, §6, §7, §8, §9, §10, §11, §12, §13, §14, §15, §16
# [13] = cryopreserved hepatocytes, read-out: % Remaining at 30 min
# Chain of CYP3A4 (Homo sapiens, UniProt P08684) (P08684 whole entry): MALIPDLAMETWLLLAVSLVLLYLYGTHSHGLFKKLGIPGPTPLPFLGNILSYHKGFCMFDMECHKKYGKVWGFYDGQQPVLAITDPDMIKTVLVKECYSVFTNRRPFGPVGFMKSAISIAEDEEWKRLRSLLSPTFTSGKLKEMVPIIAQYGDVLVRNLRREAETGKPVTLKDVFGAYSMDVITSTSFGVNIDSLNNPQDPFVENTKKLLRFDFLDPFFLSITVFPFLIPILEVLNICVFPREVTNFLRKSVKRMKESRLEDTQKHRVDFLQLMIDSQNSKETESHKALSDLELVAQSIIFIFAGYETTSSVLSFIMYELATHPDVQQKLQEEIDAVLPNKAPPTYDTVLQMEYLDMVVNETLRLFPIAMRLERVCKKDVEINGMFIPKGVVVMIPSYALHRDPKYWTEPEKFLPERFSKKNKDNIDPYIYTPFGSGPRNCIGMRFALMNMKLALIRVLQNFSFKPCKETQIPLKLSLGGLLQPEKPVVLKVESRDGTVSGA
# Chain of CYP2D6 (P10635 whole entry): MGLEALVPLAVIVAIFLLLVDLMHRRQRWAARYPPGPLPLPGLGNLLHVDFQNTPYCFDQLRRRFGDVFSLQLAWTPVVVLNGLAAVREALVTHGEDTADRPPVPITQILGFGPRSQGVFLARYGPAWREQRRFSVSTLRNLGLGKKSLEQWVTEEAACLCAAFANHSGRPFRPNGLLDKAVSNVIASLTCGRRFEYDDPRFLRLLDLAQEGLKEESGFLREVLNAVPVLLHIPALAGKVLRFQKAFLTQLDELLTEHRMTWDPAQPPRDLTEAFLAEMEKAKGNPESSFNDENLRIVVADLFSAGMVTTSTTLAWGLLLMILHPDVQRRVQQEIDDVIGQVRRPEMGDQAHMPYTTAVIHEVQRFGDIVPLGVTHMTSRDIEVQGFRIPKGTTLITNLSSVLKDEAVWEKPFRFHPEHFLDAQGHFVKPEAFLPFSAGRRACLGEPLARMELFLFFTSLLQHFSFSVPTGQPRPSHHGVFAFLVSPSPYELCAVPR
# Chain of CYP2C9 (P11712 whole entry): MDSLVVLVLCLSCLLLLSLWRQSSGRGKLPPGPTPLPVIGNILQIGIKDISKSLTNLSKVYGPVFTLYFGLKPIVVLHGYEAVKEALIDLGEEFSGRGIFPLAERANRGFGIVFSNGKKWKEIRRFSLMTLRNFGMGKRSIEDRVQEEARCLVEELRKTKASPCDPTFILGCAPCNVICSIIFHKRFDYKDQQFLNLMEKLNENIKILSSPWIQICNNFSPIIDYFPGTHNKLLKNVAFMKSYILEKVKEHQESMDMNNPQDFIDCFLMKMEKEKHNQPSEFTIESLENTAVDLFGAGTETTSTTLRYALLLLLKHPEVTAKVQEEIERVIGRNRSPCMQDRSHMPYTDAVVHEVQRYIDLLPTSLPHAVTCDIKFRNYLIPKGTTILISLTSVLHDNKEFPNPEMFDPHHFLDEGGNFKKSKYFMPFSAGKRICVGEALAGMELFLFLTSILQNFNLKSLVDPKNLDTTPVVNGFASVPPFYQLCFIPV
sequence,measurement,setting,value
"LRKLRKRLLRLVGRQLEEFL [HM-10/10, LRKLRKRLLRLVGRQLEEFL]",% Inhibition at 50 µM No PI + NADPH,[1]; Midazolam (3A4),6.6%
same,% Inhibition at 50 µM No PI − NADPH,[1]; Midazolam (3A4),19.2%
same,% Inhibition at 50 µM PI + NADPH,[1]; Midazolam (3A4),13.9%
same,% Inhibition at 50 µM PI − NADPH,[1]; Midazolam (3A4),29.5%
same,% Inhibition at 50 µM No PI + NADPH,[1]; Testosterone (3A4),6.9%
same,% Inhibition at 50 µM No PI − NADPH,[1]; Testosterone (3A4),−0.7%
same,% Inhibition at 50 µM PI + NADPH,[1]; Testosterone (3A4),11.3%
same,% Inhibition at 50 µM PI − NADPH,[1]; Testosterone (3A4),32.2%
same,CLint scaled,"[2]; CD-1 mouse liver microsomes 0.5 mg protein/mL, 2 μM",170 mL/min/kg
same,half-life at 2 µM,"[2]; pooled liver microsomes, pH 7.4, CD-1 mouse liver microsomes 0.5 mg protein/mL",32 min
same,"remaining at 2 h, 2 µM","[2]; pooled liver microsomes, pH 7.4, CD-1 mouse liver microsomes 0.5 mg protein/mL, read-out: % Remaining at 120 min",0.8%
same,CLint scaled,[3]; 2 μM,465 mL/min/kg
same,half-life at 2 µM,[3]; cryopreserved hepatocytes,12.1 min
same,"remaining at 0.5 h, 2 µM",[3]; [13],18.5%
same,% Inhibition at 50 µM No PI + NADPH,[4],8.6%
same,% Inhibition at 50 µM No PI − NADPH,[4],0.4%
same,% Inhibition at 50 µM PI + NADPH,[4],1.7%
same,% Inhibition at 50 µM PI − NADPH,[4],0.5%
same,Fold Increase (Enzyme Activity) Lot HH1086,[5]; 2 µM,2.06 fold
same,Fold Increase (Enzyme Activity) Lot HH1142,[5]; 2 µM,1.59 fold
same,Fold Increase (Enzyme Activity) Lot HH1144,[5]; 2 µM,1.35 fold
same,Fold Increase (Enzyme Activity) Mean,[5]; 2 µM,1.67 fold
same,Fold Increase (Enzyme Activity) Lot HH1086,[5]; 10 µM,2.20 fold
same,Fold Increase (Enzyme Activity) Lot HH1142,[5]; 10 µM,2.12 fold
same,Fold Increase (Enzyme Activity) Lot HH1144,[5]; 10 µM,1.83 fold
same,Fold Increase (Enzyme Activity) Mean,[5]; 10 µM,2.05 fold
same,Fold Increase (Enzyme Activity) Lot HH1086,[5]; 25 µM,2.07 fold
same,Fold Increase (Enzyme Activity) Lot HH1142,[5]; 25 µM,2.19 fold
same,Fold Increase (Enzyme Activity) Lot HH1144,[5]; 25 µM,2.15 fold
same,Fold Increase (Enzyme Activity) Mean,[5]; 25 µM,2.14 fold
same,Fold Increase (Enzyme Activity) Lot HH1086,[6]; 2 µM,3.18 fold
same,Fold Increase (Enzyme Activity) Lot HH1142,[6]; 2 µM,2.82 fold
same,Fold Increase (Enzyme Activity) Lot HH1144,[6]; 2 µM,3.00 fold
same,Fold Increase (Enzyme Activity) Mean,[6]; 2 µM,3.00 fold
same,Fold Increase (Enzyme Activity) Lot HH1086,[6]; 10 µM,4.01 fold
same,Fold Increase (Enzyme Activity) Lot HH1142,[6]; 10 µM,6.36 fold
same,Fold Increase (Enzyme Activity) Lot HH1144,[6]; 10 µM,4.52 fold
same,Fold Increase (Enzyme Activity) Mean,[6]; 10 µM,4.96 fold
same,Fold Increase (Enzyme Activity) Lot HH1086,[6]; 25 µM,2.80 fold
same,Fold Increase (Enzyme Activity) Lot HH1142,[6]; 25 µM,9.29 fold
same,Fold Increase (Enzyme Activity) Lot HH1144,[6]; 25 µM,6.73 fold
same,Fold Increase (Enzyme Activity) Mean,[6]; 25 µM,6.27 fold
same,CLint scaled,"[7]; Human liver microsomes 0.5 mg protein/mL, 2 μM",61.5 mL/min/kg
same,half-life at 2 µM,"[7]; pooled liver microsomes, pH 7.4, Human liver microsomes 0.5 mg protein/mL",20.3 min
same,"remaining at 2 h, 2 µM","[7]; pooled liver microsomes, pH 7.4, Human liver microsomes 0.5 mg protein/mL, read-out: % Remaining at 120 min",1.4%
same,Average % Stability,[8]; 10 µM,0.7%
same,"remaining at 24 h, 2 µM","[8]; human, plated human hepatocytes, three single-donor lots, 2 µM",0.6%
same,"remaining at 24 h, 25 µM","[8]; human, plated human hepatocytes, three single-donor lots, 25 µM",0.3%
same,half-life at 2 µM,[9]; cryopreserved hepatocytes,5.81 min
same,"remaining at 0.5 h, 2 µM",[9]; [13],1%
same,CLint scaled,[9]; read-out: CLint (L/hr/kg) (converted),75.4 L/h/kg
same,CLint scaled,[9]; read-out: CLint (mL/min/kg),75.6 L/h/kg
same,half-life at 2 µM,[10],5.68 min
same,"remaining at 2 h, 2 µM",[10],23.9%
same,% Inhibition at 50 µM No PI + NADPH,[11],6.0%
same,% Inhibition at 50 µM No PI − NADPH,[11],17.2%
same,% Inhibition at 50 µM PI + NADPH,[11],17.0%
same,% Inhibition at 50 µM PI − NADPH,[11],19.7%
same,Fold Increase (Enzyme Activity) Lot HH1086,[12]; 2 µM,0.682 fold
same,Fold Increase (Enzyme Activity) Lot HH1142,[12]; 2 µM,1.33 fold
same,Fold Increase (Enzyme Activity) Lot HH1144,[12]; 2 µM,1.73 fold
same,Fold Increase (Enzyme Activity) Mean,[12]; 2 µM,1.25 fold
same,Fold Increase (Enzyme Activity) Lot HH1086,[12]; 10 µM,1.88 fold
same,Fold Increase (Enzyme Activity) Lot HH1142,[12]; 10 µM,5.19 fold
same,Fold Increase (Enzyme Activity) Lot HH1144,[12]; 10 µM,3.32 fold
same,Fold Increase (Enzyme Activity) Mean,[12]; 10 µM,3.46 fold
same,Fold Increase (Enzyme Activity) Lot HH1086,[12]; 25 µM,2.46 fold
same,Fold Increase (Enzyme Activity) Lot HH1142,[12]; 25 µM,5.98 fold
same,Fold Increase (Enzyme Activity) Lot HH1144,[12]; 25 µM,3.65 fold
same,Fold Increase (Enzyme Activity) Mean,[12]; 25 µM,4.03 fold
